Laboratory results from patent US9546168B2, “ERK inhibitors” (Merck Sharp & Dohme Corp., priority 2013, dated 2017).
pIC50: −log10 of the molar value.

target: phosphorylated active hERK2 enzyme (Homo sapiens (Human), UniProt P28482); experiment: Active Human ERK2 (hERK2) Activity Assay (IMAP-FP); assay type: biochemical; details: 0.5 nM hERK2, 30 μM ATP, 10 point titration
Procedure: Active Human ERK2 (hERK2) Activity Assay:
Activated ERK2 activity was determined in an IMAP-FP assay (Molecular Devices). Using this assay format, the potency (IC50) of each compound was determined from a 10 point (1:3 serial dilution, 3 μM starting compound concentration) titration curve using the following outlined procedure. […] Following a 15 minute compound & enzyme incubation, each reaction was initiated by the addition of 10 μL kinase buffer containing 2.45 μM ERK2 IMAP substrate peptides and 75 μM ATP. The final reaction in each well of 25 μL consists of 0.5 nM hERK2, 900 nM unlabeled peptide, 80 nM labeled-peptide, and 30 μM ATP. Phosphorylation reactions were allowed to proceed for 60 minutes and were immediately quenched by the addition of 60 μL IMAP detection beads (1:1000 dilutions) in IMAP binding buffer (Molecular Devices) with 24 mM NaCl. Plates were read on EnVision reader after 60 minutes binding equilibration using Fluorescence Polarization protocol (Perkin Elmer).

phosphorylated active hERK2 enzyme, sequence (P28482 whole entry): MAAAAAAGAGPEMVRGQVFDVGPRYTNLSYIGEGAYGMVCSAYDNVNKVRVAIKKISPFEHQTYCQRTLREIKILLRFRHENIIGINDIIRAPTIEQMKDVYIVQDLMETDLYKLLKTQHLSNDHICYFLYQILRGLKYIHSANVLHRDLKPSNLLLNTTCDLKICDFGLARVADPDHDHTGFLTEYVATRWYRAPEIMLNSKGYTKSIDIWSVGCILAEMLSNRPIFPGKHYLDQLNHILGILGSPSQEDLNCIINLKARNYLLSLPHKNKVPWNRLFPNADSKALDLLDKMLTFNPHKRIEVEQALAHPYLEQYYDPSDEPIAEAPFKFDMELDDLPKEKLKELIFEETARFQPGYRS

| SMILES | pIC50 |
| --- | --- |
| Cc1cc(-c2n[nH]c3cc(NC(=O)N[C@H](C)c4ccccc4)nc(C)c23)ccn1 [Example 1, (R)-1-(4-Methyl-3-(2-methylpyridin-4-yl)-1H-pyrazolo[4,3-c]pyridin-6-yl)-3-(1-phenylethyl)urea] | 9.43 |
| Cc1nc(NC(=O)N[C@H](C)c2ccccc2)cc2[nH]nc(-c3ccnc(F)c3)c12 [Example 2, 1-[3-(2-fluoropyridin-4-yl)-4-methyl-1H-pyrazolo[4,3-c]pyridin-6-yl]-3-[(1R)-1-phenylethyl]urea] | 8.91 |
| C[C@@H](NC(=O)Nc1cc2[nH]nc(-c3ccnc(F)c3)c2c(CO)n1)c1ccccc1 [Example 3, (R)-1-(3-(2-fluoropyridin-4-yl)-4-(hydroxymethyl)-1H-pyrazolo[4,3-c]pyridin-6-yl)-3-(1-phenylethyl)urea] | 9.04 |
| Cc1cc(-c2n[nH]c3cc(NC(=O)N[C@H](C)c4ccccc4)nc(CO)c23)ccn1 [Example 4, (R)-1-(4-(hydroxymethyl)-3-(2-methylpyridin-4-yl)-1H-pyrazolo[4,3-c]pyridin-6-yl)-3-(1-phenylethyl)urea] | 9.41 |
| C[C@@H](NC(=O)Nc1cc2[nH]nc(C3CC3)c2c(CO)n1)c1ccccc1 [Example 5, (R)-1-(3-cyclopropyl-4-(hydroxymethyl)-1H-pyrazolo[4,3-c]pyridin-6-yl)-3-(1-phenylethyl)urea] | 9.14 |
| CC(C)(O)[C@@H](NC(=O)Nc1cc2[nH]nc(C3CC3)c2c(CO)n1)c1ccccc1 [Example 6, 1-[3-cyclopropyl-4-(hydroxymethyl)-1H-pyrazolo[4,3-c]pyridin-6-yl]-3-[(1S)-2-hydroxy-2-methyl-1-phenylpropyl]urea] | 8.36 |
| CC(C)(O)[C@@H](NC(=O)Nc1cc2[nH]nc(C3CC3)c2c(CO)n1)c1ccc(F)cc1 [Example 7, 1-[3-cyclopropyl-4-(hydroxymethyl)-1H-pyrazolo[4,3-c]pyridin-6-yl]-3-[(1S)-1-(4-fluorophenyl)-2-hydroxy-2-methylpropyl]urea] | 9.08 |
| C[C@@H](O)[C@@H](NC(=O)Nc1cc2[nH]nc(C3CC3)c2c(CO)n1)c1ccccc1 [Example 9, 1-[3-cyclopropyl-4-(hydroxymethyl)-1H-pyrazolo[4,3-c]pyridin-6-yl]-3-[(1S,2R)-2-hydroxy-1-phenylpropyl]urea] | 9.12 |
| Cc1cc(-c2n[nH]c3cc(NC(=O)N[C@H](COC(F)F)c4ccccc4)nc(CO)c23)ccn1 [Example 10, 1-[(1S)-2-(difluoromethoxy)-1-phenylethyl]-3-[4-(hydroxymethyl)-3-(2-methylpyridin-4-yl)-1H-pyrazolo[4,3-c]pyridin-6-yl]urea] | 9.18 |
| C[C@@H](NC(=O)Nc1cc2[nH]nc(-c3ccc(F)cc3)c2c(CO)n1)c1ccccc1 [Example 11, 1-[3-(4-fluorophenyl)-4-(hydroxymethyl)-1H-pyrazolo[4,3-c]pyridin-6-yl]-3-[(1R)-1-phenylethyl]urea] | 9.35 |
| C[C@@H](NC(=O)Nc1cc2[nH]nc(-c3ccnc(C#N)c3)c2c(CO)n1)c1ccccc1 [Example 12, 1-[3-(2-cyanopyridin-4-yl)-4-(hydroxymethyl)-1H-pyrazolo[4,3-c]pyridin-6-yl]-3-[(1R)-1-phenylethyl]urea] | 8.79 |
| CC(C)(O)[C@@H](NC(=O)Nc1cc2[nH]nc(-c3ccc(F)cc3)c2c(CO)n1)c1ccccc1 [Example 13, 1-[3-(4-fluorophenyl)-4-(hydroxymethyl)-1H-pyrazolo[4,3-c]pyridin-6-yl]-3-[(1S)-2-hydroxy-2-methyl-1-phenylpropyl]urea] | 9.51 |
| CC(C)(O)[C@@H](NC(=O)Nc1cc2[nH]nc(-c3ccc(F)cc3)c2c(CO)n1)c1ccc(F)cc1 [Example 15, 1-[(1S)-1-(4-fluorophenyl)-2-hydroxy-2-methylpropyl]-3-[3-(4-fluorophenyl)-4-(hydroxymethyl)-1H-pyrazolo[4,3-c]pyridin-6-yl]urea] | 9.54 |
| CC(C)(C)[C@@H](NC(=O)Nc1cc2[nH]nc(-c3ccc(F)cc3)c2c(CO)n1)c1ccccc1 [Example 17, 1-[(1R)-2,2-dimethyl-1-phenylpropyl]-3-[3-(4-fluorophenyl)-4-(hydroxymethyl)-1H-pyrazolo[4,3-c]pyridin-6-yl]urea] | 8.06 |
| CC(C)(O)[C@@H](NC(=O)Nc1cc2[nH]nc(-c3ccccc3)c2c(CO)n1)c1ccccc1 [Example 18, 1-[(1S)-2-hydroxy-2-methyl-1-phenylpropyl]-3-[4-(hydroxymethyl)-3-phenyl-1H-pyrazolo[4,3-c]pyridin-6-yl]urea] | 9.43 |
| CC(C)(O)[C@@H](NC(=O)Nc1cc2[nH]nc(-c3ccc(C#N)cc3)c2c(CO)n1)c1ccccc1 [Example 19, 1-[3-(4-cyanophenyl)-4-(hydroxymethyl)-1H-pyrazolo[4,3-c]pyridin-6-yl]-3-[(1S)-2-hydroxy-2-methyl-1-phenylpropyl]urea] | 9.28 |
| COCc1nc(NC(=O)N[C@H](C)c2ccccc2)cc2[nH]nc(-c3ccnc(C)c3)c12 [Example 20, (R)-1-(4-(Methoxymethyl)-3-(2-methylpyridin-4-yl)-1H-pyrazolo[4,3-c]pyridin-6-yl)-3-(1-phenylethyl)urea] | 8.95 |
| Cc1nc(NC(=O)N[C@@H](c2ccccc2)C(C)(C)O)cc2[nH]nc(C(F)F)c12 [Example 21, (S)-1-(3-(difluoromethyl)-4-methyl-1H-pyrazolo[4,3-c]pyridin-6-yl)-3-(2-hydroxy-2-methyl-1-phenylpropyl)urea] | 9.21 |
| CC(C)(O)[C@@H](NC(=O)Nc1cc2[nH]nc(C(F)F)c2c(CO)n1)c1ccccc1 [Example 22, (S)-1-(3-(difluoromethyl)-4-(hydroxymethyl)-1H-pyrazolo[4,3-c]pyridin-6-yl)-3-(2-hydroxy-2-methyl-1-phenylpropyl)urea] | 9.12 |
| CC(C)(O)[C@@H](NC(=O)Nc1cc2[nH]nc(C(F)F)c2c(CO)n1)c1ccc(F)cc1 [Example 23, 1-[3-(difluoromethyl)-4-(hydroxymethyl)-1H-pyrazolo[4,3-c]pyridin-6-yl]-3-[(1S)-1-(4-fluorophenyl)-2-hydroxy-2-methylpropyl]urea] | 9.31 |
| C[C@@H](NC(=O)Nc1cc2[nH]nc(C(F)F)c2c(CO)n1)c1ccccc1 [Example 24, 1-[3-(difluoromethyl)-4-(hydroxymethyl)-1H-pyrazolo[4,3-c]pyridin-6-yl]-3-[(1R)-1-phenylethyl]urea] | 8.90 |
| C[C@@H](NC(=O)Nc1cc2[nH]nc(CO)c2c(CO)n1)c1ccccc1 [Example 25, (R)-1-(3,4-bis(hydroxymethyl)-1H-pyrazolo[4,3-c]pyridin-6-yl)-3-(1-phenylethyl)urea] | 8.73 |
| CC(=O)c1n[nH]c2cc(NC(=O)N[C@H](C)c3ccccc3)nc(CO)c12 [Example 26, (R)-1-(3-acetyl-4-(hydroxymethyl)-1H-pyrazolo[4,3-c]pyridin-6-yl)-3-(1-phenylethyl)urea] | 7.90 |
| CC(O)c1n[nH]c2cc(NC(=O)N[C@H](C)c3ccccc3)nc(CO)c12 (stereo partly drawn) [Example 27, 1-(3-(1-hydroxyethyl)-4-(hydroxymethyl)-1H-pyrazolo[4,3-c]pyridin-6-yl)-3-((R)-1-phenylethyl)urea] | 8.26 |
| CC(F)(F)c1n[nH]c2cc(NC(=O)N[C@@H](c3ccccc3)C(C)(C)O)nc(CO)c12 [Example 28, (S)-1-(3-(1,1-difluoroethyl)-4-(hydroxymethyl)-1H-pyrazolo[4,3-c]pyridin-6-yl)-3-(2-hydroxy-2-methyl-1-phenylpropyl)urea] | 7.85 |
| C[C@@H](NC(=O)Nc1cc2[nH]nc(C(F)(F)F)c2c(CO)n1)c1ccccc1 [Example 29, (R)-1-(4-(hydroxymethyl)-3-(trifluoromethyl)-1H-pyrazolo[4,3-c]pyridin-6-yl)-3-(1-phenylethyl)urea] | 7.88 |
